Columns and labels:
mTORC1 = mTORC1 (Homo sapiens, UniProt P42345); assay: mTOR/GbL/Raptor (mTORC1) ELISA Assay; type: biochemical; conditions: phosphorylation of 4E-BP1; 0.2 nM mTORC1, 10 μM ATP
Procedure: The measurement of mTORC1 enzyme activity was performed in an ELISA assay format following the phosphorylation of 4E-BP1 protein. All experiments were performed in the 384-well format. Generally, 0.5 μL DMSO containing varying concentrations of the test compound was mixed with 15 μL enzyme solution. Kinase reactions were initiated with the addition of 15 μL of substrates-containing solution. The assay conditions were as follows; 0.2 nM mTORC1, 10 μM ATP and 50 nM NHis-tagged 4E-BP1 in 20 mM Hepes, pH 7.2, 1 mM DTT, 50 mM NaCl, 10 mM MnCl2, 0.02 mg/mL BSA, 0.01% CHAPS, 50 mM β-glycerophosphate. Following an incubation of 120 minutes at ambient temperature, 20 μL of the reaction volume was transferred to a Ni-Chelate-coated 384-well plate. The binding step of the 4E-BP1 protein proceeded for 60 minutes, followed by washing 4 times each with 50 μL of Tris-buffered saline solution (TBS). Anti-phospho-4E-BP1 rabbit-IgG (20 μL, 1:5000) in 5% BSA-TBST (0.2% Tween-20 in TBS) was added and further incubated for 60 minutes. Incubation with a secondary HRP-tagged anti-IgG was similarly performed after washing off the primary antibody (4 washes of 50 μL). Following the final wash step with TBST, 20 μL of SuperSignal ELISA Femto (Pierce Biotechnology) was added and the luminescence measured using an EnVision plate reader.

PI3Kalpha = PI3Kalpha (Homo sapiens, UniProt P42336); assay: PI3K Biochemical Assays (PI3K-alpha assay); conditions: ATP consumption, luciferase-luciferin; 1 μM ATP, 10 μM PIP2
Chain of PI3Kalpha (P42336 whole entry): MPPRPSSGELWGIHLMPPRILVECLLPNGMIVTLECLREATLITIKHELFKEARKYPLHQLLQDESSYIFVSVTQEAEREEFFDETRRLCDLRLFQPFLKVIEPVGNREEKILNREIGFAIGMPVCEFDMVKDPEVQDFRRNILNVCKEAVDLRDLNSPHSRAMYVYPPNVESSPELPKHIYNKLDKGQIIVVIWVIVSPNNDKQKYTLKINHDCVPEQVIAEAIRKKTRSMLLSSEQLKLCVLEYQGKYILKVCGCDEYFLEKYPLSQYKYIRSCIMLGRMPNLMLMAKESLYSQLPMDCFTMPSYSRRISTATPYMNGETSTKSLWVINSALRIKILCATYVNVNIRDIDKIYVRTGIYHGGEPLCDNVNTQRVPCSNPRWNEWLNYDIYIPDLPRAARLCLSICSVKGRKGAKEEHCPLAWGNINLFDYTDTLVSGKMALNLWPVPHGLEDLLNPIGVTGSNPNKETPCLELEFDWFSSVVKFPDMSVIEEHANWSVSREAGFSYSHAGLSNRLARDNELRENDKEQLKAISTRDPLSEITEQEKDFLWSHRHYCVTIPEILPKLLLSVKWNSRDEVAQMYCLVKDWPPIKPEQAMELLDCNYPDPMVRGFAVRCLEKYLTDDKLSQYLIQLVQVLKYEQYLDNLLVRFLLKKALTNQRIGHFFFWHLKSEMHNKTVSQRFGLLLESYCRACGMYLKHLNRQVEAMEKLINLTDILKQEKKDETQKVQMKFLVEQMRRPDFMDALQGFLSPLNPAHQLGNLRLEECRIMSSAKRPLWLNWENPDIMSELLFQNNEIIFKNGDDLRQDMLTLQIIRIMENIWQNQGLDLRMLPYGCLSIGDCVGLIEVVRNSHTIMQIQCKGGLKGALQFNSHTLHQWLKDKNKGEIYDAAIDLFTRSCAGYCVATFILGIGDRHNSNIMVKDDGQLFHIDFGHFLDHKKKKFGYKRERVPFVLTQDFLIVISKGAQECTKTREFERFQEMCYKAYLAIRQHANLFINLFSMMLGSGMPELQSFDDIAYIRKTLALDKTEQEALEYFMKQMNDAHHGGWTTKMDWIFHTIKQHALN
Chain of PI3Kalpha (P27986 whole entry partner): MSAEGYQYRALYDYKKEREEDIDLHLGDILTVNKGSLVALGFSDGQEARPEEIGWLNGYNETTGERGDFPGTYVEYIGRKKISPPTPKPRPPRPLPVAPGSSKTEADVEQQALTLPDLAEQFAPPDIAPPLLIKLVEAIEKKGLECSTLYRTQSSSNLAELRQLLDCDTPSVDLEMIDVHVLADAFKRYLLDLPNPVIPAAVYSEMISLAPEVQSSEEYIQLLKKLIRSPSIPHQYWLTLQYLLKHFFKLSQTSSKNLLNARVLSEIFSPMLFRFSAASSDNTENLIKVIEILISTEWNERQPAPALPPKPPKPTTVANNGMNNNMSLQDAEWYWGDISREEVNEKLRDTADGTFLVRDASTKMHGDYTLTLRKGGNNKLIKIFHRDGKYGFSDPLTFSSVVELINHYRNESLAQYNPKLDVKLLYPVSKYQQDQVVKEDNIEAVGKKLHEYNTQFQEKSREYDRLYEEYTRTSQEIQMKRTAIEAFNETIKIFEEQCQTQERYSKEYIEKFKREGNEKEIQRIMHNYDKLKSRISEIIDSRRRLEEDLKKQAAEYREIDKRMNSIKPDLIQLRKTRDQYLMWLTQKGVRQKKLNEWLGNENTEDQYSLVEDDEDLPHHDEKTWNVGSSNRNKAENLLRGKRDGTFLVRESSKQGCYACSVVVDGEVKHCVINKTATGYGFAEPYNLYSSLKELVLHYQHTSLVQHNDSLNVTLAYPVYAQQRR
Procedure: PI3Kn activity was measured as the percent of ATP consumed following the kinase reaction using luciferase-luciferin-coupled chemiluminescence. Reactions were conducted in 384-well white, medium binding microtiter plates (Greiner). Kinase reactions were initiated by combining test compounds, ATP, substrate (PIP2), and kinase in a 20 μL volume in a buffer solution. The standard PI3Kalpha assay buffer was composed 50 mM Tris, pH 7.5, 1 mM EGTA, 10 mM MgCl2, 1 mM DTT and 0.03% CHAPS. The standard assay concentrations for enzyme, ATP, and substrate were 3 nM, 1 μM, and 10 μM, respectively. The reaction mixture was incubated at ambient temperature for approximately 2 h. Following the kinase reaction, a 10 μL aliquot of luciferase-luciferin mix (Promega Kinase-Glo) was added and the chemiluminescence signal measured using a Victor2 or EnVision (Perkin Elmer). Total ATP consumption was limited to 40-60% and IC50 values of control compounds correlate well with literature references. Substituting PI3Kα with PI3Krβ, PI3Kγ, or PI3Kδ, the inhibitory activity of the compounds for the other isoforms of PI3K were measured. For the PI3Kβ and PI3Kδ assays, enzyme concentrations were 10 nM and 4 nM, respectively. For the PI3Kγ assay, enzyme concentration was 40 nM, the incubation time was 1 h, and the concentration of MgCl2 in the assay buffer was 5 mM.

IC50 (mTORC1) | IC50 (PI3Kalpha) | SMILES
≤ 100 nM | ≤ 100 nM | Cc1nc(C(N)=O)nc(N2CCOc3ccc(-c4cnc5sc(N)nc5c4)cc3C2)c1C(C)C [Compound 20, 4-[7-(2-amino[1,3]thiazolo[5,4-b]pyridin-6-yl)-2,3-dihydro-1,4-benzoxazepin-4(5H)-yl]-6-methyl-5-(1-methylethyl)pyrimidine-2-carboxamide]
≤ 100 nM | ≤ 100 nM | Cc1nc(CNS(C)(=O)=O)nc(N2CCOc3ccc(-c4cnc5sc(N)nc5c4)cc3C2)c1C(C)C [Compound 21, N-({4-[7-(2-amino[1,3]thiazolo[5,4-b]pyridin-6-yl)-2,3-dihydro-1,4-benzoxazepin-4(5H)-yl]-6-methyl-5-(1-methylethyl)pyrimidin-2-yl}methyl)methanesulfonamide]
≤ 100 nM | ≤ 100 nM | CC(=O)NCc1nc(C)c(C(C)C)c(N2CCOc3ccc(-c4cnc5sc(N)nc5c4)cc3C2)n1 [Compound 22, N-({4-[7-(2-amino[1,3]thiazolo[5,4-b]pyridin-6-yl)-2,3-dihydro-1,4-benzoxazepin-4(5H)-yl]-6-methyl-5-(1-methylethyl)pyrimidin-2-yl)methyl)acetamide]
≤ 100 nM | 100 to 500 nM | Cc1nc(NS(C)(=O)=O)nc(N2CCOc3ccc(-c4cnc5sc(N)nc5c4)cc3C2)c1C(C)C [Compound 23, N-{4-(7-(2-amino[1,3]thiazolo[5,4-b]pyridin-6-yl)-2,3-dihydro-1,4-benzoxazepin-4(5H)-yl]-6-methyl-5-(1-methylethyl)pyrimidin-2-yl}methanesulfonamide]
≤ 100 nM | ≤ 100 nM | Cc1nc(S(C)(=O)=O)nc(N2CCOc3ccc(-c4cnc5sc(N)nc5c4)cc3C2)c1C(C)C [Compound 24, 6-{4-[6-methyl-5-(1-methylethyl)-2-(methylsulfonyl)pyrimidin-4-yl]-2,3,4,5-tetrahydro-1,4-benzoxazepin-7-yl}[1,3]thiazolo[5,4-b]pyridin-2-amine]
≤ 100 nM | 100 to 500 nM | Cc1nc(C#N)nc(N2CCOc3ccc(-c4cnc5sc(N)nc5c4)cc3C2)c1C(C)C [Compound 25, 4-[7-(2-amino[1,3]thiazolo[5,4-b]pyridin-6-yl)-2,3-dihydro-1,4-benzoxazepin-4(5H)-yl)-6-methyl-5-(1-methylethyl)pyrimidine-2-carbonitrile]
100 to 500 nM | ≤ 100 nM | COc1ccc2c(N3CCOc4ccc(-c5cnc6sc(N)nc6c5)cc4C3)nc(C)nc2c1 [Compound 26, 6-{4-[2-methyl-7-(methyloxy)quinazolin-4-yl]-2,3,4,5-tetrahydro-1,4-benzoxazepin-7-yl}[1,3]thiazolo[5,4-b]pyridin-2-amine]
≤ 100 nM | ≤ 100 nM | Cc1nc(CN(C)C)nc(N2CCOc3ccc(-c4cnc5sc(N)nc5c4)cc3C2)c1CC1CC1 [Compound 27, 6-(4-{5-(cyclopropylmethyl)-2-[(dimethylamino)methyl]-6-methylpyrimidin-4-yl}-2,3,4,5-tetrahydro-1,4-benzoxazepin-7-yl)[1,3]thiazolo[5,4-b]pyridin-2-amine]
≤ 100 nM | ≤ 100 nM | Cc1nc(CN2CCCC2)nc(N2CCOc3ccc(-c4cnc5sc(N)nc5c4)cc3C2)c1C(C)C [Compound 28, 6-{4-[6-methyl-5-(1-methylethyl)-2-(pyrrolidin-1-ylmethyl)pyrimidin-4-yl]-2,3,4,5-tetrahydro-1,4-benzoxazepin-7-yl}[1,3]thiazolo[5,4-b]pyridin-2-amine]
≤ 100 nM | ≤ 100 nM | CCc1nc(N)nc(N2CCOc3ccc(-c4cnc5sc(N)nc5c4)cc3C2)c1C(C)C [Compound 29, 6-{4-[2-amino-6-ethyl-5-(1-methylethyl)pyrimidin-4-yl]-2,3,4,5-tetrahydro-1,4-benzoxazepin-7-yl}[1,3]thiazolo[5,4-b]pyridin-2-amine]
≤ 100 nM | ≤ 100 nM | C=C(C)c1c(C)nc(N)nc1N1CCOc2ccc(-c3cnc4sc(N)nc4c3)cc2C1 [Compound 30, 6-{4-[2-amino-6-methyl-5-(1-methylethenyl)pyrimidin-4-yl]-2,3,4,5-tetrahydro-1,4-benzoxazepin-7-yl}[1,3]thiazolo[5,4-b]pyridin-2-amine]

— patent US20140018347A1, “BENZOXAZEPINES AS INHIBITORS OF mTOR AND METHODS OF THEIR USE AND MANUFACTURE” (Exelixis, Inc., priority 2010, published 2014)
